How the values were obtained:
Test in all cases: relative viability (nuclei count vs DMSO), 5 days (fraction); higher = more cells survive
NCI-H2023 = system: NCI-H2023
Procedure, shortened: (§1)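 Relative viability divides the nuclei count in treated wells by that in vehicle wells. Lung cancer cell lines were seeded in 1536-well plates, dosed by pin tool the next day, and fixed and stained after 5 days in one step with final 0.05% Triton X-100, 1% formaldehyde and 1 ug/ml Hoechst. Dosing was a single drug or a fixed anchor-drug dose plus five library-drug doses (not always all listed) in √10 steps, and values are medians of duplicate plates imaged at 4×.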

HCC-44 = system: HCC-44
Procedure, shortened: as §1

HCC-78 = system: HCC-78
Procedure, shortened: as §1

ChaGo-K-1 = system: ChaGo-K-1
Procedure, shortened: as §1

LOU-NH91 = system: LOU-NH91
Procedure, shortened: as §1

NCI-H838 = system: NCI-H838
Procedure, shortened: as §1

HCC-366 = system: HCC-366
Procedure, shortened: as §1

NCI-H1734 = system: NCI-H1734
Procedure, shortened: as §1

HOP-62 = system: HOP-62
Procedure, shortened: as §1

NCI-H596 = system: NCI-H596
Procedure, shortened: as §1

NCI-H650 = system: NCI-H650
Procedure, shortened: as §1

A-427 = system: A-427
Procedure, shortened: as §1

COR-L23 = system: COR-L23
Procedure, shortened: as §1

NCI-H1650 = system: NCI-H1650
Procedure, shortened: as §1

NCI-H2087 = system: NCI-H2087
Procedure, shortened: as §1

EKVX = system: EKVX
Procedure, shortened: as §1

NCI-H1915 = system: NCI-H1915
Procedure, shortened: as §1

SK-MES-1 = system: SK-MES-1
Procedure, shortened: as §1

NCI-H3122 = system: NCI-H3122
Procedure, shortened: as §1

NCI-H358 = system: NCI-H358
Procedure, shortened: as §1

NCI-H661 = system: NCI-H661
Procedure, shortened: as §1

EPLC-272H = system: EPLC-272H
Procedure, shortened: as §1

`O=C(O)CCCCC(CCSCc1ccccc1)SCc1ccccc1` (stereo not drawn) [CPI-613] + C[C@@H](Oc1cc(-c2cnn(C3CCNCC3)c2)cnc1N)c1c(Cl)ccc(F)c1Cl [Crizotinib] (partner 1 µM) gave a relative viability (NCI-H2023; first compound 5 µM) of 0.583, a relative viability (NCI-H2023; first compound 15.81 µM) of 0.605 and a relative viability (NCI-H2023; first compound 50 µM) of 0.598. For the same molecule, the relative viability (NCI-H2023; first compound 158.11 µM) was 0.388, the relative viability (NCI-H2023; first compound 500 µM) was 0.0057 and the relative viability (HCC-44; first compound 5 µM) was 0.834. For the same molecule, the relative viability (HCC-44; first compound 15.81 µM) was 0.791, the relative viability (HCC-44; first compound 50 µM) was 0.785 and the relative viability (HCC-44; first compound 158.11 µM) was 0.295. It also gave a relative viability (HCC-44; first compound 500 µM) of 0.0369, a relative viability (HCC-78; first compound 5 µM) of 0.346 and a relative viability (HCC-78; first compound 15.81 µM) of 0.318. The relative viability (HCC-78; first compound 158.11 µM) was 0.348, the relative viability (HCC-78; first compound 500 µM) was 0.331 and the relative viability (ChaGo-K-1; first compound 5 µM) was 1.14. It also gave a relative viability (ChaGo-K-1; first compound 15.81 µM) of 1.05, a relative viability (ChaGo-K-1; first compound 50 µM) of 0.992 and a relative viability (ChaGo-K-1; first compound 158.11 µM) of 1.04. The relative viability (ChaGo-K-1; first compound 500 µM) was 0.813, the relative viability (LOU-NH91; first compound 5 µM) was 0.801 and the relative viability (LOU-NH91; first compound 15.81 µM) was 0.692. For the same molecule, the relative viability (LOU-NH91; first compound 50 µM) was 0.765, the relative viability (LOU-NH91; first compound 158.11 µM) was 0.71 and the relative viability (LOU-NH91; first compound 500 µM) was 0.722. The relative viability (NCI-H838; first compound 5 µM) was 0.882, the relative viability (NCI-H838; first compound 15.81 µM) was 0.833 and the relative viability (NCI-H838; first compound 50 µM) was 0.803. It also gave a relative viability (NCI-H838; first compound 158.11 µM) of 0.598, a relative viability (NCI-H838; first compound 500 µM) of 0.0806 and a relative viability (HCC-366; first compound 5 µM) of 0.533. It also gave a relative viability (HCC-366; first compound 15.81 µM) of 0.483, a relative viability (HCC-366; first compound 50 µM) of 0.381 and a relative viability (HCC-366; first compound 158.11 µM) of 0.331. It also gave a relative viability (HCC-366; first compound 500 µM) of 0.0154, a relative viability (NCI-H1734; first compound 5 µM) of 0.695 and a relative viability (NCI-H1734; first compound 15.81 µM) of 0.685. The relative viability (NCI-H1734; first compound 50 µM) was 0.62, the relative viability (NCI-H1734; first compound 158.11 µM) was 0.279 and the relative viability (NCI-H1734; first compound 500 µM) was 0.113. The relative viability (HOP-62; first compound 5 µM) was 0.862, the relative viability (HOP-62; first compound 15.81 µM) was 0.85 and the relative viability (HOP-62; first compound 50 µM) was 0.851. The relative viability (HOP-62; first compound 158.11 µM) was 0.172, the relative viability (HOP-62; first compound 500 µM) was 0.387 and the relative viability (NCI-H596; first compound 5 µM) was 0.959. For the same molecule, the relative viability (NCI-H596; first compound 15.81 µM) was 0.966, the relative viability (NCI-H596; first compound 50 µM) was 1.1 and the relative viability (NCI-H596; first compound 158.11 µM) was 0.589. It also gave a relative viability (NCI-H596; first compound 500 µM) of 0.0472, a relative viability (NCI-H650; first compound 5 µM) of 0.665 and a relative viability (NCI-H650; first compound 15.81 µM) of 0.703. For the same molecule, the relative viability (NCI-H650; first compound 50 µM) was 0.677, the relative viability (NCI-H650; first compound 158.11 µM) was 0.626 and the relative viability (NCI-H650; first compound 500 µM) was 0.649. It also gave a relative viability (A-427; first compound 5 µM) of 0.89, a relative viability (A-427; first compound 15.81 µM) of 0.885 and a relative viability (A-427; first compound 50 µM) of 0.754. The relative viability (A-427; first compound 158.11 µM) was 0.175, the relative viability (A-427; first compound 500 µM) was 0.126 and the relative viability (COR-L23; first compound 5 µM) was 0.635. For the same molecule, the relative viability (COR-L23; first compound 15.81 µM) was 0.598, the relative viability (COR-L23; first compound 50 µM) was 0.647 and the relative viability (COR-L23; first compound 158.11 µM) was 0.226. For the same molecule, the relative viability (COR-L23; first compound 500 µM) was 0.0141, the relative viability (NCI-H1650; first compound 5 µM) was 0.991 and the relative viability (NCI-H1650; first compound 15.81 µM) was 0.854. The relative viability (NCI-H1650; first compound 50 µM) was 0.853, the relative viability (NCI-H1650; first compound 158.11 µM) was 0.579 and the relative viability (NCI-H1650; first compound 500 µM) was 0.0088. It also gave a relative viability (NCI-H2087; first compound 5 µM) of 0.909, a relative viability (NCI-H2087; first compound 15.81 µM) of 0.706 and a relative viability (NCI-H2087; first compound 50 µM) of 0.706. It also gave a relative viability (NCI-H2087; first compound 158.11 µM) of 0.132, a relative viability (NCI-H2087; first compound 500 µM) of 0.0499 and a relative viability (EKVX; first compound 5 µM) of 0.885. For the same molecule, the relative viability (EKVX; first compound 15.81 µM) was 0.817, the relative viability (EKVX; first compound 50 µM) was 0.891 and the relative viability (EKVX; first compound 158.11 µM) was 1.02. It also gave a relative viability (EKVX; first compound 500 µM) of 0.952, a relative viability (NCI-H1915; first compound 5 µM) of 0.895 and a relative viability (NCI-H1915; first compound 15.81 µM) of 0.93. It also gave a relative viability (NCI-H1915; first compound 50 µM) of 0.809, a relative viability (NCI-H1915; first compound 158.11 µM) of 0.678 and a relative viability (NCI-H1915; first compound 500 µM) of 0.446. It also gave a relative viability (SK-MES-1; first compound 5 µM) of 0.918, a relative viability (SK-MES-1; first compound 15.81 µM) of 0.961 and a relative viability (SK-MES-1; first compound 50 µM) of 0.936. It also gave a relative viability (SK-MES-1; first compound 158.11 µM) of 0.926, a relative viability (SK-MES-1; first compound 500 µM) of 0.734 and a relative viability (NCI-H3122; first compound 5 µM) of 0.234. For the same molecule, the relative viability (NCI-H3122; first compound 15.81 µM) was 0.261, the relative viability (NCI-H3122; first compound 50 µM) was 0.281 and the relative viability (NCI-H3122; first compound 158.11 µM) was 0.247. It also gave a relative viability (NCI-H3122; first compound 500 µM) of 0.0651, a relative viability (NCI-H358; first compound 5 µM) of 0.659 and a relative viability (NCI-H358; first compound 15.81 µM) of 0.606. For the same molecule, the relative viability (NCI-H358; first compound 50 µM) was 0.501, the relative viability (NCI-H358; first compound 158.11 µM) was 0.104 and the relative viability (NCI-H358; first compound 500 µM) was 0.0191. The relative viability (NCI-H661; first compound 15.81 µM) was 1.03, the relative viability (NCI-H661; first compound 50 µM) was 0.997 and the relative viability (NCI-H661; first compound 158.11 µM) was 1.15. The relative viability (NCI-H661; first compound 500 µM) was 0.817, the relative viability (EPLC-272H; first compound 5 µM) was 0.9 and the relative viability (EPLC-272H; first compound 15.81 µM) was 0.925. The relative viability (EPLC-272H; first compound 50 µM) was 1.03, the relative viability (EPLC-272H; first compound 158.11 µM) was 0.855 and the relative viability (EPLC-272H; first compound 500 µM) was 1.07.
